Test results taken from article PMC2119975 (The Journal of Cell Biology, 1994).

Experiments:
type II alveolar cells = experiment: Alveolar inhibition studies on gelled BMS; type: cell-based, rat; settings: Fig. 6; cells preincubated with peptide, up to 700 μM; day five; n = 9
[1] = test system: HT1080 human fibrosarcoma cells; experiment: Cell adhesion assay, HT1080 cells; type: cell-based; settings: Fig. 7 B; coating and inhibitor 100 μM; EDTA 2 mM; cells preincubated

Compound: FGNMGS
- Effect of tryptic peptides of SN-peptide on alveolar formation (type II alveolar cells): minimal

Compound: WHSIYITR
- Effect of tryptic peptides of SN-peptide on alveolar formation (type II alveolar cells): partial

Compound: O=C(O)CN(CCN(CC(=O)O)CC(=O)O)CC(=O)O [EDTA]
- Inhibition of HT1080 cell adhesion to SN-peptide [1]: inhibited
